Data on ten molecules can be found in the SangsterLogP compilation.

`COc1c2ccoc2c(OCC=C(C)C)c2oc(=O)ccc12` displayed a logP of 3.86.

In turn, `COc1ccc2ccc(=O)oc2c1CC1OC1(C)C` (stereo not given) came in with a logP of 3.03.

Take `C/C=C(/C)C(=O)O[C@H]1C[C@@](C)(O)C(=O)[C@@H](OC(=O)/C(C)=C\C)[C@@]2(C)CC[C@@](O)(C(C)C)[C@@H]12`: the logP was determined as 3.29.

For the molecule `COc1ccc2c(C)cc(=O)oc2c1`, the log partition coefficient (logP) came to 3.16.

For `CC(C)=CCOc1ccc2ccc(=O)oc2c1`, the logP came out at 3.91.

With `C/C=C(/C)C(=O)O[C@@H]1[C@H](OC(C)=O)c2c(ccc3ccc(=O)oc23)OC1(C)C`, the log partition coefficient (logP) worked out at 3.75.

For `O=c1cc(O)c2ccccc2o1`, the logP was found to be 1.42.

`COc1cc2ccc(=O)oc2cc1OC` displayed a logP of 2.45.

For `C/C=C(\C)C(=O)OC1c2c(ccc3ccc(=O)oc23)OC(C)(C)[C@@H]1OC(=O)/C(C)=C/C` (stereo not given in full), the logP is 4.41.

`C/C=C(/C)C(=O)O[C@H]1[C@@H](O)c2c(ccc3ccc(=O)oc23)OC1(C)C` displayed a lipophilicity (logP) of 3.56.

As usually defined, the logP is the decadic logarithm of the partition coefficient of the neutral form, usually between octanol and water. Lower therefore signals lower lipophilicity.
